# In patent publication US20230102836A1, “Amoebicidal Compositions for Contact Lens Solutions” (University of the West of Scotland, priority 2019, published 2023):
# System: A. castellanii cysts
# Test: Extrusion of cytoplasmic constituents (DNA, protein) from cysts
# Assay type: cell-based, Acanthamoeba castellanii ATCC 50370
# Source text: FIGS. 9A-9B show the extrusion of cytoplasmic constituents of A. castellani cysts to the external milieu after QAC treatment. DNA (FIG. 9A) and Protein (FIG. […] 9A) and at 280 nm (FIG. 9B) respectively. Data is mean absorbance at 260 nm (FIG. 9A) and 280 nm (FIG. 9B)±SD respectively: n=4 independent experiments performed in triplicates.
# Protein concentration in cell extract and media of QAC-treated and untreated A. castellanii trophozoites was estimated at 280 nm using the Nanodrop® ND-1000 and expressed as ng/μl protein. DNA concentrations were estimated similarly at 260 nm and expressed as ng/μl.
smiles,measurement,setting,value
"CCCCCCCCCCCCCCCCCC[N+](C)(C)C.[Br-] [QAC18, octadecyltrimethyl ammonium bromide]",Increase in DNA in the external milieu of cysts,after 1 h (FIG. 9A),40%
same,Increase in proteins in the external milieu of cysts,after 1 h (FIG. 9B),50%
